ChEMBL document CHEMBL1201862, “PubChem BioAssay data set” (2004)
Active and inactive are the calls of the source. Rule as the data show it, for most assays here: actives have a measured EC50 and inactives only a lower limit.

Columns and labels:
Cytochrome P450 2C9 = Cytochrome P450 2C9 (Homo sapiens, UniProt P11712)
[1] = inhibitors of intracellular T. cruzi replication, confirmation, NIH3T3 host cells, beta-gal luminescence (AID 2044); type: functional, cell-based;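 also: intracellular parasites grown in NIH/3T3 mouse fibroblasts as host cells; luminescent beta-galactosidase reporter signal from transgenic T. cruzi replicating inside host cells; inhibitors lower the luminescence signal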
[2] = cytotoxicity toward NIH3T3 fibroblasts, dose response, counter-screen, cell-based, ATP luminescence, mouse fibroblasts (AID 2010); type: functional;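 also: cells exposed to compound for about 90 hours before reading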
[3] = target: T1, Corticotropin-releasing factor receptor 2/Corticotropin-releasing factor-binding protein (Homo sapiens, UniProt P24387+Q13324); assay: Dose Response confirmation of uHTS hits for small molecule antagonists of the CRF-binding protein and CRF-R2 receptor complex.; type: functional; settings: read-out: IC50_Mean
T1 sequence (Q13324 whole entry): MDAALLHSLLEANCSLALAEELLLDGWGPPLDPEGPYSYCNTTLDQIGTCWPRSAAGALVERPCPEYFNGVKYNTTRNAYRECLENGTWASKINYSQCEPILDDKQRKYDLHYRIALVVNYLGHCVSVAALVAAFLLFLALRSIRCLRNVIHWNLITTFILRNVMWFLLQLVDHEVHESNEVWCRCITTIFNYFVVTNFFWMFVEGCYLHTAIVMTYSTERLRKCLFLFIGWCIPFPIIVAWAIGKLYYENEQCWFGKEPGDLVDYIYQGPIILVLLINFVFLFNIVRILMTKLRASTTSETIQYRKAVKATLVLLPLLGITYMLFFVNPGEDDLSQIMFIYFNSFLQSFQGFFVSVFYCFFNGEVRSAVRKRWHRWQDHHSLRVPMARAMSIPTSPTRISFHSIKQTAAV
T1 sequence (P24387 whole entry): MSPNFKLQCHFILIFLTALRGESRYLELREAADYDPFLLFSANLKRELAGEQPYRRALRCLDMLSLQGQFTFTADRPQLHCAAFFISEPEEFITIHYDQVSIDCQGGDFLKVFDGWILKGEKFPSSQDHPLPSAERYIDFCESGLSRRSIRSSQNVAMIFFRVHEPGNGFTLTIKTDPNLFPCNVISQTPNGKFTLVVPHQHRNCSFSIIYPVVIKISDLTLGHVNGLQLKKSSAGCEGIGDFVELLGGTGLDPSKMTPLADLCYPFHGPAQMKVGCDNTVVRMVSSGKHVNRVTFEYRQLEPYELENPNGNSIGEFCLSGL

[4] = target: T1, Corticotropin-releasing factor receptor 2/Corticotropin-releasing factor-binding protein; assay: activators of CRF receptor 2 with binding protein – uHTS hits, confirmation (AID 602473); type: functional; settings: read-out: EC50_Mean
Cytochrome P450 3A4 = Cytochrome P450 3A4 (Homo sapiens, UniProt P08684);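 also: CYP3A4 tested as one member of a cytochrome P450 panel screen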
Sequence of Cytochrome P450 3A4 (P08684 whole entry): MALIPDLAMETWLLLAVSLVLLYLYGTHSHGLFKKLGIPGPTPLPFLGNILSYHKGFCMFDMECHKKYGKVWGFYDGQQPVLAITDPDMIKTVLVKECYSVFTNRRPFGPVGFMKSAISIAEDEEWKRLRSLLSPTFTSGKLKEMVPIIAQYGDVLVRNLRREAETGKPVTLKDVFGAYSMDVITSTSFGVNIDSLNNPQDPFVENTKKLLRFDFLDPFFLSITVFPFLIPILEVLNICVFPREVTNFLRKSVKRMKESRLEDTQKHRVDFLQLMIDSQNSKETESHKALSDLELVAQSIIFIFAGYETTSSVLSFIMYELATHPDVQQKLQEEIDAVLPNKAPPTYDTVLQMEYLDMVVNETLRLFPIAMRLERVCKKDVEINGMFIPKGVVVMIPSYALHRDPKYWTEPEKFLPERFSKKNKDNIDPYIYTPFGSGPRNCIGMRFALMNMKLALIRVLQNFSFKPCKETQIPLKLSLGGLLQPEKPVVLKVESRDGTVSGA

Streptococcus = assay: Group A Streptococcus viability loss, dose response, counter-screen for streptokinase expression inhibitor project, luminescence, BacTiterGlo (AID 1915); type: functional, organism-based;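 also: potency for reduction of bacterial viability or growth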
Streptokinase A = target: T2, Streptokinase A (Streptococcus pyogenes serotype M1, UniProt P10520); assay: S. pyogenes streptokinase expression inhibitors, potency, dose response, plasminogen activation absorbance, OD405 (AID 1914); type: functional, Streptococcus pyogenes M1 GAS;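 also: secreted streptokinase activity via plasminogen activation per viability signal from cell pellet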
T2 sequence (P10520 whole entry): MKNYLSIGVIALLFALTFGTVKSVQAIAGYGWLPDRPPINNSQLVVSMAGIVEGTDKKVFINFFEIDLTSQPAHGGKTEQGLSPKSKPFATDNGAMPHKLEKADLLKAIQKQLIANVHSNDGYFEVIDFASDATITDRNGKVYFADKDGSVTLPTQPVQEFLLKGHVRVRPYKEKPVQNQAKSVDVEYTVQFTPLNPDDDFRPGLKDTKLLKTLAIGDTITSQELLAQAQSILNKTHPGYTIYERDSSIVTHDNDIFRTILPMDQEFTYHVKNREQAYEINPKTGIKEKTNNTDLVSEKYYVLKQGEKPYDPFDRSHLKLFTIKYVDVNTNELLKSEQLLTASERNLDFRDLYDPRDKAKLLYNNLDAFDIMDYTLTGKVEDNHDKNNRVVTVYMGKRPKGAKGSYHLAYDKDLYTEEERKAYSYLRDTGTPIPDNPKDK

[5] = system: Streptococcus sp. 'group A'; assay: growth inhibition of control SK(-) GAS strain, dose response, counter-screen for streptokinase expression inhibitor project, luminescence, kanamycin, BacTiterGlo, confirmation (AID 1900); type: functional, organism-based

Sequence of Cytochrome P450 2C9 (P11712 whole entry): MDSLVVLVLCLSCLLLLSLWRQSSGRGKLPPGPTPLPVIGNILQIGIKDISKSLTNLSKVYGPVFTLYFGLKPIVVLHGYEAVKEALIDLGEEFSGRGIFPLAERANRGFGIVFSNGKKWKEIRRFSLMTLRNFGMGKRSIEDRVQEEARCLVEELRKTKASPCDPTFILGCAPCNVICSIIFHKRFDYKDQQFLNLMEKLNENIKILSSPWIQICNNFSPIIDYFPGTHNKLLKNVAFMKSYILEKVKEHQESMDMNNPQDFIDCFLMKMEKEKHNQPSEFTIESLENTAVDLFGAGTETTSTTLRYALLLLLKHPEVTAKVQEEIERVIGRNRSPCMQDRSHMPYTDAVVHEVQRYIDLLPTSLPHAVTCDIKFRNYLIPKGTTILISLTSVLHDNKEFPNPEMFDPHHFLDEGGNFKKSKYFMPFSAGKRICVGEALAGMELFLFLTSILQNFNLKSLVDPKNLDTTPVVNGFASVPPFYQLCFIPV

Structure (SMILES) | EC50 [1] | EC50 [2] | EC50 [4] | further results
COc1cc(CN2CCN(C(=O)CC(C)C)CC2)cc(OC)c1OC |  |  |  | AC50 (Cytochrome P450 2C9): 28.2 µM (inconclusive)
Cc1c(C(=O)Nc2nc3ccccc3[nH]2)oc2ccc(Br)cc12 | 1.63 µM (active) | > 60 µM (not active) |  | 
O=S(=O)(NCc1ccccc1)c1ccccc1NCCc1ccccc1 |  |  | > 53 µM (inactive) | IC50 [3]: > 47.1 µM (inactive)
Cc1ccc(OCC(=O)Nc2ccc(S(=O)(=O)Nc3onc(C)c3C)cc2)cc1 |  |  |  | AC50 (Cytochrome P450 3A4): 35.5 µM (inconclusive)
CN1CCN(c2nc(N3CCN(c4ccccc4)CC3)ncc2F)CC1 | 0.253 µM (active) | > 30 µM (not active) |  | 
COc1ccc(NS(=O)(=O)c2cc(-c3nnnn3C)ccc2OC)cc1 |  |  |  | AC50 (Cytochrome P450 2C9): 25.1 µM (inconclusive)
Cc1cc(O)ccc1N1C(=O)c2cccc3cc([N+](=O)[O-])cc(c23)C1=O | 0.234 µM (active) | > 60 µM (not active) |  | 
CC1CC1c1ccc(/C=C(\C#N)C(=O)Nc2cccc(Cl)c2Cl)o1 (stereo not given) |  |  | > 53 µM (inactive) | 
CN1CCN(C(CNC(=O)C(=O)Nc2ccc3c(c2)OCCO3)c2ccc(F)cc2)CC1 (stereo not given) | 0.952 µM (active) | > 60 µM (not active) |  | 
CO[C@H]1C[C@@H](O[C@@H]2[C@H](C)[C@H](O[C@@H]3O[C@@H](C)C[C@@H](N(C)C)[C@@H]3O)[C@H](C)C[C@]3(CO3)C(=O)[C@H](C)[C@H](O)[C@H](C)[C@H](C)OC(=O)[C@@H]2C)O[C@@H](C)[C@H]1O |  |  |  | AC50 (Cytochrome P450 3A4): 12.6 µM (inconclusive)
CCOC(=O)c1cnn(-c2nc(-c3ccccc3)cs2)c1C(F)(F)F |  |  |  | EC50 (Streptococcus): > 150 µM (not active); EC50 (Streptokinase A): 15.6 µM (active); EC50 [5]: 14.6 µM (active)
Cc1ccc2nc(Cl)c(/C=C/C(=O)c3ccco3)cc2c1 |  |  | > 53 µM (inactive) | IC50 [3]: > 47.1 µM (inactive)
Cc1[nH]c(C)c(S(=O)(=O)NCCc2ccccc2)c1C(=O)N1CCCCC1 |  |  | > 53 µM (inactive) | IC50 [3]: > 47.1 µM (inactive)
NNc1nc(-c2ccccc2)c2cc(Br)ccc2n1 |  |  |  | EC50 (Streptococcus): 41.8 µM (active); EC50 (Streptokinase A): > 150 µM (not active); EC50 [5]: 10.1 µM (active)
CCOc1ccc(Nc2nc(N3CCCC3)nc(N3CCN(c4ccc(OC)cc4)CC3)n2)cc1 | 2.73 µM (active) | > 60 µM (not active) |  | 
CC(C)(CNC(=O)c1cc(Cl)c(O)c(Cl)c1)N1CCCCC1 |  |  | > 53 µM (inactive) | IC50 [3]: > 47.1 µM (inactive)
O=[N+]([O-])c1nn(-c2ccc3c(c2)OCCO3)[n+]([O-])c1NC1CCCC1 | 0.88 µM (active) | > 30 µM (not active) |  | 
Cc1ccc(CN2CCN(Cc3nc4c(s3)CCCC4)CC2CCO)cc1 (stereo not given) | 0.546 µM (active) | > 60 µM (not active) |  | 
Fc1ccc(Cn2nnnc2C(c2ccc(Cl)cc2)N2CC=C(c3ccc(F)cc3)CC2)cc1 (stereo not given) | 1.34 µM (active) | > 60 µM (not active) |  | 
CCCC(=O)NC(=S)Nc1ccc(S(=O)(=O)Nc2ccc(OCC)cc2)cc1 |  |  | > 53 µM (inactive) | 
O=C(OCCN1C(=O)c2ccccc2C1=O)c1cccc(OC(F)F)c1 |  |  | > 53 µM (inactive) | IC50 [3]: > 47.1 µM (inactive)
COCCNC(=O)CN(CC1CCCO1)C(=O)CCC(=O)Nc1ccccn1 (stereo not given) |  |  | > 53 µM (inactive) | IC50 [3]: > 47.1 µM (inactive)
Cc1cccc(CN2CCN(CC(=O)O)C2=O)c1 |  |  |  | AC50 (Cytochrome P450 3A4): 15.8 µM (inconclusive)
N#CCCn1c(=O)c(-c2ccccc2)nc2cnc(Oc3ccccc3)nc21 |  |  |  | AC50 (Cytochrome P450 2C9): 15.8 µM (inconclusive)
CC(C)CCN=C(S)NC1CCCC1 |  |  |  | AC50 (Cytochrome P450 2C9): 39.8 µM (inconclusive); AC50 (Cytochrome P450 3A4): 22.4 µM (inconclusive)
O=C(CCC(=O)N1CCOc2ccc(Cl)cc21)NCc1ccccc1 |  |  | > 53 µM (inactive) | 
